Test results as given in patent US10857105B2, “Compounds and compositions for intracellular delivery of therapeutic agents” (ModernaTX, Inc., priority 2017, dated 2020).

Legend:
[1] = Particle size and polydispersity index of nanoparticle compositions (Zetasizer Nano ZS); type: physicochemical
Procedure, shortened: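 Size and PDI measured by Zetasizer Nano ZS in 1×PBS (zeta potential in 15 mM PBS). Lipid nanoparticles contained test ionizable lipid:DSPC:cholesterol:PEG-DMG at 50:10:38.5:1.5 mol % with N1-methyl-pseudouridine mRNA encoding luciferase or hEPO.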

[2] = Encapsulation efficiency of RNA in nanoparticle compositions (RIBOGREEN assay); type: physicochemical
Procedure, shortened: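 Lipid nanoparticles (ionisable lipid:DSPC:cholesterol:PEG-DMG 50:10:38.5:1.5 mol %) carrying N1-methylpseudouridine luciferase or hEPO mRNA diluted to about 5 μg/mL in TE, pH 7.5, with or without 2% Triton X-100, 15 min at 37° C. RiboGreen fluorescence (ex ~480, em ~520 nm) blank-subtracted; free RNA = intact/disrupted signal.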

hEPO mRNA = assay: hEPO expression after intravenous administration to rats; type: in vivo, rat; settings: Table 19B; for [hEPO] Lipid/MC3: ratio to MC3
Procedure: The expression of hEPO and cytokine induction in rats intravenously administered a nanoparticle composition at a dose of 2.0 mpk was measured at 6 h.
The expression of hEPO in rats intravenously administered a nanoparticle composition at a dose of 0.2 mpk or 2.0 mpk was measured at 6 hours. Table 16 summarize the ratio of hEPO expression levels using various nanoparticle compositions as compared to the hEPO expression level using MC3 formulation and the lipid levels in the liver measured 48 hours after administration, as described above. Tables 17 and 18 summarize the lipid levels in the liver and spleen measured 48 hours after administration of Compounds 28, 33, 53, and 54. Liver and spleen levels represent the average values calculated for 3 rats in each group. As is shown in Tables 17 and 18, less than 10% of Compounds 28, 33, 53, and 54 remained in the liver after 48 hours, while greater than 60% of MC3 remained.
Table 19A summarizes the hEPO expression, IP-10 induction, liver and spleen levels, and alanine aminotransferase (ALT) and aspartate aminotransferase (AST) measured upon intravenous administration of formulations including Compounds 48, 49, and 50 to rat at 0.2 and 2 mpk and hEPO mRNA. hEPO concentrations were measured 6 hours after administration, while cytokine induction and liver and spleen levels were measured 48 hours after administration. hEPO and IP-10 concentrations are presented in pg/ml, while liver levels are provided in ng/g. ALT and AST levels are presented in international units.
The expression of hEPO induced by intravenous administration to rats of nanoparticle compositions at various doses was measured at 2, 4, 6, 8, 24, and 48 hour time points. FIGS. 3-6 respectively summarize the hEPO expression measured upon intravenous administration of formulations including Compounds 26, 18, 25, and MC3 to rat at various doses. The lipid levels of Compound 26 in the liver after 48 hours were about 19%.
The expression of hEPO and lipid levels in the liver and spleen in rats intravenously administered a nanoparticle composition at a dose of 0.2 mpk was measured at various time points. Compounds 18 and 25 were selected for comparison with MC3. Lipids were formulated according to the standard MC3 formulation described above. Rats were administered intravenously a single 0.2 mpk dose and expression monitored at 0.25, 0.5, 1, 2, 4, 8, 24, and 48 hours after administration.

luciferase (Luc) mRNA [3] = assay: Luciferase expression after intramuscular administration to mice; type: in vivo; settings: Luc mRNA, intramuscular, 0.01 mpk, 6 hours
Source text: The numbers 1-7 in this figure correspond to MC3, Compounds 168-170, and 173-175 respectively.
FIGS. 18A and 18B show the results of luciferase expression measured upon intramuscular administration of various nanoparticle compositions to CD-1 mice at 0.01 mpk. FIG. 18A is a bar graph showing total flux at 6 hr after administration. The numbers above each bar indicate the expression ratio relative to MC3. […] Numbers 1-11 in the Figures refer to compositions containing the following: 1: MC3, 2: Compound 143, 3: Compound 49; 4: Compound 113; 5: Compound 61; 6: Compound 72; 7: Compound 75; 8: Compound 71; 9: Compound 128; 10: Compound 156; 11: Compound 157.
The numbers 1-9 in this figure correspond to MC3, and Compounds 178, 181, 182, 218, 198, 200, 233, and 239, respectively.
(§1) The total flux (measured by area under the curve, AUC) induced by administration of a formulation including a given lipid relative to that induced by administration of a formulation including MC3 was also measured for several lipids.
Sample formulations including modified luciferase (Luc) mRNA prepared and administered intramuscularly and the resulting expression and immunogenicity were evaluated simultaneously. Formulations including compounds according to Formula (I), (IA), (IB), (II), (IIa), (IIb), (IIc), (IId), (IIe), (IIf), (IIg), or (III) were prepared and administered at dose of and 0.01 mpk.

modified luciferase = assay: Luciferase expression in liver, lung, spleen and femur 6 hours after intravenous administration to mice; type: in vivo; settings: for Total Flux, Liver / Total Flux, Lung / Total Flux, Spleen / Total Flux, Femur: 6 hours after intravenous 0.5 mpk, mice
Procedure, shortened: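 Nanoparticle formulations of the modified luciferase were given intravenously to mice (n=3) at 0.5 mpk. Bioluminescence was measured after 6 hours as total light flux. Standard MC3 formulation and PBS run as controls.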

luciferase (Luc) mRNA [4] = assay: Luciferase expression (whole body bioluminescence) after intravenous administration to mice; type: in vivo; settings: intravenous; for Novel lipid/MC3 expression ratio, i.v.: luciferase, 6 hr. time point, relative to MC3 formulation
Procedure: In order to monitor how effectively various nanoparticle compositions deliver therapeutic and/or prophylactics to targeted cells, different nanparticle compositions including a particular therapeutic and/or prophylactic (for example, a modified or naturally occurring RNA such as an mRNA) are prepared and administered to rodent populations. Mice are intravenously, intramuscularly, intraarterially, or intratumorally administered a single dose including a nanoparticle composition with a formulation such as those provided in Example 3. In some instances, mice may be made to inhale doses. Dose sizes may range from 0.001 mg/kg to 10 mg/kg, where 10 mg/kg describes a dose including 10 mg of a therapeutic and/or, prophylactic in a nanoparticle composition for each 1 kg of body mass of the mouse. A control composition including PBS may also be employed.
Upon administration of nanoparticle compositions to mice, dose delivery profiles, dose responses, and toxicity of particular formulations and doses thereof can be measured by enzyme-linked immunosorbent assays (ELISA), bioluminescent imaging, or other methods. For nanoparticle compositions including mRNA, time courses of protein expression can also be evaluated. Samples collected from the rodents for evaluation may include blood, sera, and tissue (for example, muscle tissue from the site of an intramuscular injection and internal tissue); sample collection may involve sacrifice of the animals.
The efficacy of the nanoparticle compositions presented in Table 1A was evaluated with a bioluminescence study. Formulations were administered intravenously to mice (n=6) at a dosage of 0.5 mg/kg (mpk) and bioluminescence measured at 3, 6, and 24 hour time points. The standard MC3 formulation and, in some instances, a control (e.g., a PBS control) were evaluated for comparison. […] In general, flux decreased as time progressed to less than 10% of the initial flux.
as §1

IL-6, IP-10 = assay: Cytokine induction (IL-6, IP-10) in mice 6 hours after intravenous administration; type: in vivo; set-up: unit not given here; settings: intravenous 0.5 mpk
Source text: The introduction of foreign material into a mammalian body induces an innate immune response that promotes cytokine production. Such immune responses to, for example, nanoparticle compositions including therapeutic and/or prophylactics, are undesirable. The induction of certain cytokines is thus measured to evaluate the […] of nanoparticle compositions. The concentrations of various cytokines in mice upon intravenous administration of nanoparticle compositions presented in Table 1A at a dosage of 0.5 mpk was measured at 6 hours. The standard MC3 formulation and a PBS control were also tested. As is evident in Table 7, IL-6 induction was highest for compositions including Compounds 1, 3, 9, 19, and 26, while IP-10 induction was highest for compositions including Compounds 3, 4, 7, 20, and 26. IL-6 induction was lowest for compositions including Compounds 4, 11, 12, and 28. IP-10 induction was lowest for compositions including Compounds 10, 11, 12, 13, 15, 17, and 18.

[5] = Table 1A, lipid:DSPC:cholesterol:PEG-DMG 50:10:38.5:1.5 mol %
[6] = Table 1B, formulated with hEPO mRNA

Row | Structure (SMILES) | Size [1, 5] [nm] | Size [1, 6] [nm] | EE [2, 5] [%] | EE [2, 6] [%] | Cytokine induction, IL-6 (IL-6, IP-10) | Cytokine induction, IP-10 (IL-6, IP-10) | [hEPO] Lipid/MC3 (hEPO mRNA) | Total flux 6 hours after intramuscular administration, 0.01 mpk Dose (luciferase (Luc) mRNA [3]) [p/s] | Total Flux, Liver (modified luciferase) | Total Flux, Lung (modified luciferase) | Total Flux, Spleen (modified luciferase) | Total Flux, Femur (modified luciferase) | further results
1 | CCCCCCCCCOC(=O)CCCCCCCN(C)CCCCCCCC(=O)OC(CCCCCCCC)CCCCCCCC [Compound 123, Heptadecan-9-yl 8-(methyl(8-(nonyloxy)-8-oxooctyl)amino)octanoate] | – | – | – | – | – | – | – | 1.08E+07 | 2.50E+08 | 1.78E+06 | 4.04E+06 | – | –
2 | CCCCCCCCCOC(=O)CCCCCCCN(CCCO)CCCCCCCC(=O)OC(CCCCCCCC)CCCCCCCC [Compound 19, Heptadecan-9-yl 8-((3-hydroxypropyl)(8-(nonyloxy)-8-oxooctyl)amino) octanoate] | 101.1 | – | – | – | 285.56 | 1468.94 | – | – | 6.33E+08 | 5.99E+06 | 1.77E+07 | 1.68E+06 | Size ([1]; Table 1E, compositions for subcutaneous administration): 80.7 nm; Novel lipid/MC3 expression ratio, i.v. (luciferase (Luc) mRNA [4]): 0.96
3 | CCCCCCCCCOC(=O)CCCCCCCN(CCCCCCCC(=O)OC(CCCCCCCC)CCCCCCCC)CCCn1ccc(=O)[nH]c1=O [Compound 114, Heptadecan-9-yl 8-((3-(2,4-dioxo-3,4-dihydropyrimidin-1(2H)-yl)propyl)(8-(nonyloxy)-8-oxooctyl)amino)octanoate] | 65.1 | – | – | – | – | – | – | 3.31E+06 | – | – | – | – | –
4 | CCCCCCCCCOC(=O)CCCCCCCN(CCCN)CCCCCCCC(=O)OC(CCCCCCCC)CCCCCCCC [Compound 121, Heptadecan-9-yl 8-((3-aminopropyl)(8-(nonyloxy)-8-oxooctyl)amino)octanoate] | – | – | – | – | – | – | – | 1.06E+06 | – | – | – | – | –
5 | CCCCCCCCCOC(=O)CCCCCCCN(CCCCCCCC(=O)OC(CCCCCCCC)CCCCCCCC)CCOCCN(C)C [Compound 17, Heptadecan-9-yl 8-((2-(2-(dimethylamino)ethoxy)ethyl) (8-(nonyloxy)-8-oxooctyl)amino)octanoate] | 85.2 | – | 91.84 | – | 138.43 | 156.41 | – | – | 5.52E+05 | 9.95E+04 | 5.58E+06 | 9.55E+04 | –

More lines, main results first:

Row | Size [1, 5] [nm] | Size [1, 6] [nm] | EE [2, 5] [%] | EE [2, 6] [%] | Cytokine induction, IL-6 (IL-6, IP-10) | Cytokine induction, IP-10 (IL-6, IP-10) | Structure (SMILES) | [hEPO] Lipid/MC3 (hEPO mRNA) | Total flux 6 hours after intramuscular administration, 0.01 mpk Dose (luciferase (Luc) mRNA [3]) [p/s] | Total Flux, Liver (modified luciferase) | Total Flux, Lung (modified luciferase) | Total Flux, Spleen (modified luciferase) | Total Flux, Femur (modified luciferase) | further results
6 | 76.2 | 95.3 | 97.65 | 97.3 | – | – | CCCCCCCCCOC(=O)CCCCCCCN(CCCCCCCC(=O)OC(CCCCCCCC)CCCCCCCC)CCCN/C(=N/[N+](=O)[O-])NC [Compound 200, Heptadecan-9-yl (E)-8-((3-(3-methyl-2-nitroguanidino)propyl)(8-(nonyloxy)-8-oxooctyl)amino)octanoate] | 1.72E+06 | – | – | – | – | – | hEPO AUC (hEPO mRNA): 2.4e+07 pg·h/mL
7 | – | 150.3 | – | 76.3 | – | – | CCCCCCCCCOC(=O)CCCCCCCN(CCO)CCCCCC(=O)OC1CCC(CCCCC)CC1 (stereo not drawn) [Compound 232, Nonyl 8-((2-hydroxyethyl)(6-oxo-6-((4-pentylcyclohexyl)oxy)hexyl)amino)octanoate] | 0.83 | – | – | – | – | – | –
8 | 98.8 | – | 97.37 | – | 6.245 | 209.63 | CCCCCCCCCOC(=O)CCCCCCCN(CCO)CCCCCCC(=O)OCC(CCCCCCCC)CCCCCCCC [Compound 143, Nonyl 8-((2-hydroxyethyl)(7-((2-octyldecyl)oxy)-7-oxoheptyl)amino)octanoate] | – | – | 1.76E+09 | 3.60E+07 | 1.42E+08 | – | Novel lipid/MC3 expression ratio, i.v. (luciferase (Luc) mRNA [4]): 0.44
9 | – | 95.5 | – | 93.9 | – | – | CCCCCCCCC(CCCCCCCC)OC(=O)CCCCCCCN(CCO)CCCCCCCCCC(=O)OCCCCCCC [Compound 189, Heptyl 10-((8-(heptadecan-9-yloxy)-8-oxooctyl)(2-hydroxyethyl)amino)decanoate] | 3.01E+06 | – | – | – | – | – | –
10 | – | – | 85.7 | – | 130.82 | 234.35 | CCCCCCCCCCCCN(CCO)CCCCCCCCCCCC(=O)OC [Compound 137, Methyl 12-(dodecyl(2-hydroxyethyl)amino)dodecanoate] | – | – | 6.48E+04 | 1.66E+04 | 1.32E+05 | 2.02E+04 | PDI [1, 5]: <1; Flux at all timepoints measured (luciferase (Luc) mRNA [4]; mice, 0.5 mg/kg, 3, 6 and 24 hours): significantly lower flux; Flux in the liver (modified luciferase; mice (n=3), intravenous, 0.5 mpk, 6 hours): lowest
